According to patent US20220257595A1, “MACITENTAN FOR USE IN TREATING PORTOPULMONARY HYPERTENSION” (ACTELION PHARMACEUTICALS LTD, priority 2019, published 2022):

Key:
[1] = system: endothelin A and B receptors; settings: nonclinical in vivo studies; cited from earlier work
patients with PoPH [2] = assay: Post-hoc: MELD exception eligibility (mPAP/PVR); type: in vivo, human
Procedure: Post-Hoc, Exploratory Criteria: • Proportion of patients with NT-proBNP decrease from above 300 ng/L to below this threshold • Odds ratio for improvement to a more favorable liver transplant perioperative risk category • Odds ratio for becoming eligible for the MELD exception • Odds ratio for improvement to a more favorable waitlist mortality risk category
Risk categories related to liver transplant (transplant perioperative risk classification, MELD exception eligibility and waitlist mortality risk) were analyzed descriptively by treatment group using shift tables from baseline to Week 12 with categories as defined in Example 1.
LT perioperative risk classification, MELD exception eligibility, and waitlist mortality analyses were performed after the database lock and SDTMs delivery for the Double-Blind period. Number (%) of patients in following categories were summarized and presented in shift tables. The estimated odds ratio for risk improvement and corresponding 95% confidence intervals were obtained from an exact logistic regression (macitentan vs placebo) with factors for treatment and risk category at baseline.
In general, liver grafts are attributed in priority to patients who need a liver transplant the most urgently. This assessment lies mostly on the Model for End-stage Liver Disease (MELD) score: the higher the score, the higher the patient's priority on the waiting list. In PoPH, by the time MELD score is high enough to obtain a liver graft, the hemodynamic state is generally too severely impaired for the procedure. In the US, a PoPH MELD exception rule (MELD exception) is in place to facilitate access to a liver graft to patients with PoPH who attain mPAP ≤[…] and PVR ≤400 dyn·sec·cm^−5 with PAH treatment. Patients are priority-ranked on the waitlist with a higher MELD score than their actual score. This allows obtaining a liver graft at a time when liver impairment is moderate, before cardiopulmonary impairment becomes a contraindication to transplant.

patients with PoPH [3] = assay: PORTICO safety: vital signs, body weight, BMI; settings: in vivo
Excerpt: For the evaluation of treatment-emergent safety endpoints in the DB phase, the observation period for each individual subject started at the time of the first administration of macitentan or placebo and ended with the start of OL treatment or 30 days after DB treatment discontinuation (whichever occurred first). The safety variables listed below apply to the DB treatment-emergent period and the macitentan treatment-emergent period. The DB treatment-emergent period was defined as the period from the DB treatment start date up to the EOT-DB+30 days or to the EOT-DB for patients entering OL. The macitentan treatment-emergent period was defined as the period from the first intake of macitentan up to end of macitentan treatment (EOMT)+30 days. EOMT was defined as EOT-DB (for patient who received macitentan only in the DB period) or EOT-OL when applicable. […]

patients with PoPH [4] = assay: PORTICO: Borg dyspnea index after 6MWT; type: in vivo, human; settings: DB period
Procedure: (iv) 6-minute walk test, including Borg dyspnea index: The 6MWT was performed at Screening, Baseline (Visit 2/Randomization), and then every Visit until EOT-DB or EOT-OL, whichever came last. It is a non-encouraged test that measures the distance walked by the patient in six minutes. It is important that for each individual patient the 6MWT was conducted under the same conditions throughout the study (e.g., same location, same tester, same time of day, with or without nasal oxygen therapy and where applicable with same flow rate as Baseline). The Borg dyspnea index was evaluated after each 6MWT. It rates dyspnea on a scale from 0 to 10.
Double-blind treatment period: Changes from baseline to Week 12 in HVPG/HVPG (central review) and Borg dyspnea index (related to the DB treatment period) are summarized by treatment group in the FAS using descriptive statistics.

SMILES: CCCNS(=O)(=O)Nc1ncnc(OCCOc2ncc(Br)cn2)c1-c1ccc(Br)cc1 [macitentan, N-[5-(4-Bromophenyl)-6-[2-[(5-bromo-2-pyrimidinyl)oxy]ethoxy]-4-pyrimidinyl]-N′-propylsulfamide]
- Potency compared with bosentan [1]: higher potency than bosentan
- Liver transplant (MELD exception) eligibility based on mPAP/PVR: Week 12 Category 2 (mPAP ≤ 35 and PVR ≤ 400 dyn · sec/cm^5 = NO) (patients with PoPH [2]; Baseline Category 1 (n = 1), Full analysis set, 10 mg, N = 43): 0 n (%)
- Liver transplant (MELD exception) eligibility based on mPAP/PVR: Week 12 Category 1 (mPAP ≤ 35 and PVR ≤ 400 dyn · sec/cm^5 = YES) (patients with PoPH [2]; Total, Full analysis set, 10 mg, N = 43): 9 n (%)
- Odds of becoming eligible for the MELD exception, macitentan vs placebo (patients with PoPH [2]; Week 12, exact logistic regression): 4.51 times
- Patients not meeting MELD exception criteria at baseline who met them (mPAP ≤35 mmHg and PVR ≤400 dyn·sec·cm^−5) (patients with PoPH [2]; after 12 weeks, FAS no imputation, 8 patients): 18.6%
- Liver transplant eligibility: Between-treatment odds ratio for improvement, OR (patients with PoPH [2]; macitentan vs placebo, exact logistic regression, 95% CI 0.822, 46.462, p-value 0.0958): 4.512
- Effect on vital signs, body weight or BMI (patients with PoPH [3]): no indication of any notable effect
- Change in Borg dyspnea score over time (patients with PoPH [4]): no change
